Molecules are shown by their SMILES. Where a name gives a salt, the structure may show the parent alone.

human PDE10A, sequence (Q9Y233 290-1055 limits assumed): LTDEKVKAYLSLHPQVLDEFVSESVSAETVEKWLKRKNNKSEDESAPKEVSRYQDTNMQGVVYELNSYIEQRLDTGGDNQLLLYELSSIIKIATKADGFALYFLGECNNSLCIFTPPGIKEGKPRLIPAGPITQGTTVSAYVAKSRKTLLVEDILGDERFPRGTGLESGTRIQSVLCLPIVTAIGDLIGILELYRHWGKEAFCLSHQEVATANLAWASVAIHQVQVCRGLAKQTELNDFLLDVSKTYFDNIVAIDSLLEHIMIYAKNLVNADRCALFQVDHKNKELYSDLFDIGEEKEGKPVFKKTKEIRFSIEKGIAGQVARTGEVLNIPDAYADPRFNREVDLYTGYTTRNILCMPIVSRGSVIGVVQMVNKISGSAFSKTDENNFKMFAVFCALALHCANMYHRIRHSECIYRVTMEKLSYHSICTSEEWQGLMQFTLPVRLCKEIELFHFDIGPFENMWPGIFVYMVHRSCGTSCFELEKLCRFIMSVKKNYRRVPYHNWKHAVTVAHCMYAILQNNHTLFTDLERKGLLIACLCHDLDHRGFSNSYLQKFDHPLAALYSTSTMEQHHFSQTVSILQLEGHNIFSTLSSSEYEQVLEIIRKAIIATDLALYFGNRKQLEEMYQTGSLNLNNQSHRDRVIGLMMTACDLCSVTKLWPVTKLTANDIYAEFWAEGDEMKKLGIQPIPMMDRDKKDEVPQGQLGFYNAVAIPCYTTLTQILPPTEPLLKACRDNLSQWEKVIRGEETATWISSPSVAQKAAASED

In this assay the target is human PDE10A (UniProt Q9Y233). Briefly: Measurement of PDE activity (recombinant enzyme, HTRF cAMP kit). The format is biochemical. Particulars: Table 1, substrate 20 nM for PDE10, 60 minutes at 29 C, read-out: IC50. A digest of the protocol:
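Recombinant human PDE10A (10–250 pM range across PDEs) with 20 nM cAMP substrate in 20 mM Tris-HCl pH 7.5, 10 mM MgCl2, 0.1% BSA, compound pre-mixed with enzyme. Ran 60 min at 29 °C. Remaining cAMP read by HTRF, converted to % of uninhibited activity, and IC50 fitted.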
(Time-resolved FRET reads energy transfer from a long-lived donor to a nearby acceptor.)
As for `O=c1c2c(N3CC4COCC4C3)cccc2cnn1CCc1cn2ccccc2n1` (stereo not drawn) [Example 176, 2-[2-(Imidazo[1,2-a]pyridin-2-yl)ethyl]-8-(tetrahydro-1H-furo[3,4-c]pyrrol-5(3H)-yl)phthalazin-1(2H)-one hydrochloride], the IC50 is less than 100 nM.
The figure for `O=c1c2c(N3CCC(F)(F)CC3)cccc2cnn1CCc1cn2ccccc2n1` [Example 179, 8-(4,4-Difluoropiperidin-1-yl)-2-[2-(imidazo[1,2-a]pyridin-2-yl)ethyl]phthalazin-1(2H)-one] is 100 to 200 nM; for `O=c1c2c(N3CCCCC3)cccc2cnn1CCc1cn2ccccc2n1` [Example 181, 2-[2-(Imidazo[1,2-a]pyridin-2-yl)ethyl]-8-(piperidin-1-yl)phthalazin-1(2H)-one hydrochloride] it is 200 to 500 nM.
As to `O=c1c2c(N3CCCOCC3)cccc2cnn1CCc1cn2ccccc2n1` [Example 190, 2-[2-(Imidazo[1,2-a]pyridin-2-yl)ethyl]-8-(1,4-oxazepan-4-yl)phthalazin-1(2H)-one hydrochloride], the IC50 fell in the range of 100 to 200 nM.
The figure for `CC(C)(C)OC(=O)N1CC=C(c2cccc3cnn(CCc4cn5ccccc5n4)c(=O)c23)CC1` [Example 191, tert-Butyl 4-{3-[2-(imidazo[1,2-a]pyridin-2-yl)ethyl]-4-oxo-3,4-dihydrophthalazin-5-yl}-3,6-dihydropyridine-1(2H)-carboxylate] is 200 to 500 nM.
In the case of `O=c1c2cccc(-c3ccncc3)c2cnn1CCc1ccc2ccccc2n1` [Example 192, 5-(Pyridin-4-yl)-2-[2-(quinolin-2-yl)ethyl]phthalazin-1(2H)-one hydrochloride], the IC50 is less than 100 nM.
The figure for `O=c1c2cccc(-c3cncnc3)c2cnn1CCc1ccc2ccccc2n1` [Example 193, 5-(Pyrimidin-5-yl)-2-[2-(quinolin-2-yl)ethyl]phthalazin-1(2H)-one hydrochloride] is less than 100 nM.
`Cn1nccc1-c1cccc2c(=O)n(CCc3ccc4ccccc4n3)ncc12` [Example 194, 5-(1-Methyl-1H-pyrazol-5-yl)-2-[2-(quinolin-2-yl)ethyl]phthalazin-1(2H)-one]: the IC50 is less than 100 nM.
The figure for `O=c1c2cccc(N3CCS(=O)(=O)CC3)c2cnn1CCc1ccc2ccccc2n1` [Example 195, 5-(1,1-Dioxidothiomorpholin-4-yl)-2-[2-(quinolin-2-yl)ethyl]phthalazin-1(2H)-one] is 100 to 200 nM; for `O=c1c2cccc(-c3cccnc3)c2cnn1CCc1cn2ccccc2n1` [Example 196, 2-[2-(Imidazo[1,2-a]pyridin-2-yl)ethyl]-5-(pyridin-3-yl)phthalazin-1(2H)-one] it is less than 100 nM.
The value for `O=c1c2cccc(-c3cncnc3)c2cnn1CCc1cn2ccccc2n1` [Example 197, 2-[2-(Imidazo[1,2-a]pyridin-2-yl)ethyl]-5-(pyrimidin-5-yl)phthalazin-1(2H)-on] was less than 100 nM.
In the case of `O=c1c2cccc(N3CCOCC3)c2cnn1CCc1cn2ccccc2n1` [Example 198, 2-[2-(Imidazo[1,2-a]pyridin-2-yl)ethyl]-5-(morpholin-4-yl)phthalazin-1(2H)-one hydrochloride], the IC50 is less than 100 nM.
The figure for `O=c1c2cccc(N3CC4COCC4C3)c2cnn1CCc1cn2ccccc2n1` (stereo not drawn) [Example 199, 2-[2-(Imidazo[1,2-a]pyridin-2-yl)ethyl]-5-(tetrahydro-1H-furo[3,4-c]pyrrol-5(3H)-yl)phthalazin-1(2H)-one hydrochloride] is less than 100 nM; for `O=c1c2ccccc2c(-c2cncnc2)nn1CCc1cn2ccccc2n1` [Example 200, 2-[2-(Imidazo[1,2-a]pyridin-2-yl)ethyl]-4-(pyrimidin-5-yl)phthalazin-1(2H)-one] it is less than 100 nM; for `O=c1c2ccccc2c(N2CCOCC2)nn1CCc1cn2ccccc2n1` [Example 201, 2-[2-(Imidazo[1,2-a]pyridin-2-yl)ethyl]-4-(morpholin-4-yl)phthalazin-1(2H)-one] it is 200 to 500 nM.
Regarding `O=c1c2c(-c3ccncc3O)csc2ccn1CCc1ccc2ccccc2n1` [Example 203, 3-(3-Hydroxypyridin-4-yl)-5-[2-(quinolin-2-yl)ethyl]thieno[3,2-c]pyridin-4(5H)-one hydrochloride], the IC50 lay in the range of 200 to 500 nM.
For the compound `Cn1nccc1-c1csc2ccn(CCc3ccc4ccccc4n3)c(=O)c12` [Example 204, 3-(1-Methyl-1H-pyrazol-5-yl)-5-[2-(quinolin-2-yl)ethyl]thieno[3,2-c]pyridin-4(5)H-one hydrochloride], the IC50 is less than 100 nM.
The value for `O=c1c2c(-c3ccncc3)csc2ccn1CCc1ccc2ccccc2n1` [Example 205, 3-(Pyridin-4-yl)-5-[2-(quinolin-2-yl)ethyl]thieno[3,2-c]pyridin-4(5H)-one hydrochloride] was less than 100 nM.
The figure for `O=c1c2c(-c3cncnc3)csc2ccn1CCc1ccc2ccccc2n1` [Example 206] is less than 100 nM; for `O=C1Cc2ccc(-c3csc4ccn(CCc5ccc6ccccc6n5)c(=O)c34)cc2N1` [Example 207, 3-(2-Oxoindolin-6-yl)-5-[2-(quinolin-2-yl)ethyl]thieno[3,2-c]pyridin-4(5H)-one] it is less than 100 nM; for `O=c1c2c(-c3cccc(O)c3)csc2ccn1CCc1ccc2ccccc2n1` [Example 208, 3-(3-Hydroxyphenyl)-5-[2-(quinolin-2-yl)ethyl]thieno[3,2-c]pyridin-4(5H)-one hydrochloride] it is less than 100 nM.
Consider `CCc1ccc(CCn2ccc3scc(-c4ccncc4)c3c2=O)nc1` [Example 209, 5-[2-(5-Ethylpyridin-2-yl)ethyl]-3-(pyridin-4-yl)thieno[3,2-c]pyridin-4(5H)-one hydrochloride], for which the IC50 was 200 to 500 nM.
With `O=c1c2c(-c3ccncc3)csc2ccn1CCc1cn2ccccc2n1` [Example 210, 5-[2-(Imidazo[1,2-a]pyridin-2-yl)ethyl]-3-(pyridin-4-yl)thieno[3,2-c]pyridin-4(5H)-one hydrochloride], the IC50 is less than 100 nM.
The figure for `O=c1c2c(N3CCOCC3)csc2ccn1CCc1ccc2ccccc2n1` [Example 211, 3-(Morpholin-4-yl)-5-[2-(quinolin-2-yl)ethyl]thieno[3,2-c]pyridin-4(5H)-one hydrochloride] is 200 to 500 nM; for `O=c1c2c(C3=CCNCC3)csc2ccn1CCc1ccc2ccccc2n1` [Example 213, 5-(2-(Quinolin-2-yl)ethyl)-3-(1,2,3,6-tetrahydropyridin-4-yl)thieno[3,2-c]pyridin-4(5H)-one hydrochloride] it is 200 to 500 nM; for `O=c1c2c(C3CCNCC3)csc2ccn1CCc1ccc2ccccc2n1` [Example 215, 3-(Piperidin-4-yl)-5-[2-(quinolin-2-yl)ethyl]thieno[3,2-c]pyridin-4(5H)-one trifluoroacetate] it is 100 to 200 nM.
As to `Cc1csc2c(-c3ccncc3)cn(CCc3ccc4ccccc4n3)c(=O)c12` [Example 216, 3-Methyl-7-(pyridin-4-yl)-5-(2-(quinolin-2-yl)ethyl)thieno[3,2-c]pyridin-4(5H)-one], the IC50 was less than 100 nM.
With `O=c1c2c(N[C@@H]3CCNC3)cccc2cnn1CCc1cn2ccccc2n1` [Example 219, 2-[2-(Imidazo[1,2-a]pyridin-2-yl)ethyl]-8-[(3R)-pyrrolidin-3-ylamino]phthalazin-1(2H)-one dihydrochloride], the IC50 was less than 100 nM.
The value for `O=c1c2c(-c3ccncc3)cccc2ccn1/C=C/c1ccc2ccccc2n1` [Example 221, (E)-8-(Pyridin-4-yl)-2-(2-(quinolin-2-yl)vinyl)isoquinolin-1(2H)-one] was less than 100 nM.
Turning to `O=c1c2c(-c3ccncc3)cccc2ccn1CCc1ccc2ccccc2n1` [Example 223, 8-(Pyridin-4-yl)-2-(2-quinolin-2-yl-ethyl)isoquinolin-1(2H)-one], the IC50 was less than 100 nM.
The value for `O=c1c2c(-c3ccncc3)cccc2cnn1/C=C/c1ccc2ccccc2n1` [Example 225] was less than 100 nM.
The value for `O=c1c2c(-c3ccncc3)coc2ccn1CCc1ccc2ccccc2n1` [Example 228, 3-(Pyridin-4-yl)-5-(2-(quinolin-2-yl)ethyl)furo[3,2-c]pyridin-4(5H)-one hydrochloride] was less than 100 nM.
The value for `O=c1c2c(-c3ccncc3)coc2ccn1CCc1nc2ccccc2[nH]1` [Example 229, 5-(2-(1H-Benzo[d]imidazol-2-yl)ethyl)-3-(pyridin-4-yl)furo[3,2-c]pyridin-4(5H)-one hydrochloride] was less than 100 nM; that for `O=c1c2c(-c3ccncc3)coc2ccn1CCc1cn2ccccc2n1` [Example 230, 5-(2-(Imidazo[1,2-a]pyridin-2-yl)ethyl)-3-(pyridin-4-yl)furo[3,2-c]pyridin-4(5H)-one hydrochloride] was 100 to 200 nM.
Consider `O=c1c2c(-c3cncnc3)coc2ccn1CCc1ccc2ccccc2n1` [Example 231, 3-(Pyrimidin-5-yl)-5-(2-(quinolin-2-yl)ethyl)furo[3,2-c]pyridin-4(5H)-one], for which the IC50 is less than 100 nM.
The value for `C=C(Cn1ncc2nccc(-c3ccncc3)c2c1=O)c1ccc2ccccc2n1` [Example 234, 4-(Pyridin-4-yl)-6-(2-(quinolin-2-yl)allyl)pyrido[2,3-d]pyridazin-5(6H)-one] was less than 100 nM; that for `O=c1c2c(-c3cccnc3)cccc2ccn1C1CC1c1ccc2ccccc2n1` (stereo not drawn) [Example 239, anti 8-(pyridin-3-yl)-2-(2-(quinolin-2-yl)cyclopropyl)isoquinolin-1(2H)-one hydrochloride] was less than 100 nM.
For the compound `O=c1c2c(N3CCC[C@H](O)C3)cccc2ccn1C1CC1c1ccc2ccccc2n1` (stereo partly drawn) [Example 244, anti 8-((3S)-3-hydroxypiperidin-1-yl)-2-(2-(quinolin-2-yl)cyclopropyl)isoquinolin-1(2H)-one (2E)-but-2-enedioate], the IC50 is less than 100 nM.
The figure for `O=c1c2c(N3CCOCC3)cccc2ccn1C1CC1c1ccc2ccccc2n1` (stereo not drawn) [Example 246, anti 8-morpholino-2-(2-(quinolin-2-yl)cyclopropyl)isoquinolin-1(2H)-one] is less than 100 nM.

Usually IC50 stands for the concentration needed to halve the response being measured.

The record behind these values is patent US20130116241A1, “NOVEL INHIBITOR COMPOUNDS OF PHOSPHODIESTERASE TYPE 10A” (AbbVie Inc., priority 2011, published 2013).
